Results as given in patent US9981923B2, “1,2,3 Triazole antifungal agents and preparation thereof” (COUNCIL OF SCIENTIFIC & INDUSTRIAL RESEARCH, priority 2014, dated 2018).
Values after ≈ are worked out from the molar mass of the structure shown. Like-named read-outs stand apart in the source and are kept apart here.

What was measured:
Assay in all cases: Antifungal susceptibility by microbroth dilution (CLSI)
Format in all cases: cell-based
[1] = test system: Aspergillus fumigatus MCC 1046
Method: (§1) The synthesized compounds were evaluated for antifungal susceptibility by microbroth dilution method according to the recommendations of the Clinical Laboratory Standards Institute (CLSI 2008). Briefly, appropriate amount of compounds were dissolved in dimethyl sulfoxide to get 100× final strength. The stock was then diluted 1:50 in RPMI/YPG medium and 200 μl from this was added to the first row of a 96-well microtitre plate. The compounds were serially diluted two fold in successive wells to get a range of 1-128 μg/ml. Fungal yeast cells (˜2×10^3 cfu/mL), freshly grown in YPG broth in logarithmic phase, were suspended in the medium and inoculated (100 μl) in the wells of the plate. For filamentous fungi, 2×10^4 spores/mL were added. The microtitre plate was incubated for 48 h, and the absorbance was measured at 600 nm by using microtitre plate reader to assess cell growth.

[2] = test system: Candida glabrata NCYC 388; settings: Table 1; 48 h, >90% inhibition of growth
Method: as §1

[3] = test system: Candida albicans ATCC 24433
Method: as §1

[4] = test system: Aspergillus niger ATCC 10578
Method: as §1

[5] = test system: Cryptococcus neoformans ATCC 34664
Method: as §1

C. tropicalis ATCC 750 = settings: Candida tropicalis, ATCC750; Table 2
Method: as §1

[6] = Table 1, 48 h, >90% inhibition of growth
[7] = Aspergillus fumigatus, MCC1046, Table 2, read-out: MIC values
[8] = Candida albicans, ATCC24433, Table 2, read-out: MIC values
[9] = Aspergillus niger, ATCC10578, Table 2, read-out: MIC values
[10] = Cryptococcus neoformans, ATCC34664, Table 2, read-out: MIC values

Row | SMILES | MIC [1, 6] | MIC [2] | MIC ([3]; Table 1, 48 h, >90% inhibition of growth, range 1-128 μg/ml) | MIC [4, 6] | MIC [5, 6] | MIC [1, 7] | MIC [3, 8] | MIC (C. tropicalis ATCC 750) | MIC [4, 9] | MIC [5, 10]
1 | CCC(O)(c1ccccc1)c1cn(-c2cc(Cl)ccc2O)nn1 (stereo not drawn) [Compound 2da] | 128 µg/mL (≈ 388 µM) | 128 µg/mL (≈ 388 µM) | 128 µg/mL (≈ 388 µM) | 64 µg/mL (≈ 194 µM) | >128 µg/mL | – | – | – | – | –
2 | CC(O)(Cc1cn(-c2ccc(F)cc2O)nn1)c1ccc(F)cc1F (stereo not drawn) [Compound 3ac, 2-(4-(2-(2,4-Difluorophenyl)-2-hydroxypropyl)-1H-1,2,3-triazol-1-yl)-5-fluorophenol] | – | – | – | – | – | 64 µg/mL (≈ 183 µM) | 8 µg/mL (≈ 22.9 µM) | 128 µg/mL (≈ 366 µM) | 128 µg/mL (≈ 366 µM) | 128 µg/mL (≈ 366 µM)
3 | CC(O)(Cc1cn(-c2ccccc2O)nn1)c1ccc(F)cc1F (stereo not drawn) [Compound 3ad, 2-(4-(2-(2,4-Difluorophenyl)-2-hydroxypropyl)-1H-1,2,3-triazol-1-yl)phenol] | – | – | – | – | – | 128 µg/mL (≈ 386 µM) | 8 µg/mL (≈ 24.1 µM) | 256 µg/mL (≈ 773 µM) | 128 µg/mL (≈ 386 µM) | 128 µg/mL (≈ 386 µM)
4 | CC(O)(Cc1cn(-c2cc(Cl)ccc2O)nn1)c1ccc(Cl)cc1Cl (stereo not drawn) [Compound 3ba, 4-Chloro-2-(4-(2-(2,4-dichlorophenyl)-2-hydroxypropyl)-1H-1,2,3-triazol-1-yl)phenol] | – | – | – | – | – | > 256 µg/mL | 32 µg/mL (≈ 80.3 µM) | > 256 µg/mL | > 256 µg/mL | > 256 µg/mL
5 | CC(O)(Cc1cn(-c2ccccc2O)nn1)c1ccc(Cl)cc1Cl (stereo not drawn) [Compound 3bd, 2-(4-(2-(2,4-Dichlorophenyl)-2-hydroxypropyl)-1H-1,2,3-triazol-1-yl)phenol] | – | – | – | – | – | 16 µg/mL (≈ 43.9 µM) | 8 µg/mL (≈ 22 µM) | 64 µg/mL (≈ 176 µM) | 32 µg/mL (≈ 87.9 µM) | 32 µg/mL (≈ 87.9 µM)
6 | Oc1cc(Cl)ccc1-n1cc(CC(O)c2ccc(C(F)(F)F)cc2F)nn1 (stereo not drawn) [Compound 3cb, 5-Chloro-2-(4-(2-(2-fluoro-4-(trifluoromethyl)phenyl)-2-hydroxyethyl)-1H-1,2,3-triazol-1-yl)phenol] | – | – | – | – | – | > 256 µg/mL | 16 µg/mL (≈ 39.8 µM) | > 256 µg/mL | > 256 µg/mL | > 256 µg/mL
7 | Oc1cc(F)ccc1-n1cc(CC(O)c2ccc(C(F)(F)F)cc2F)nn1 (stereo not drawn) [Compound 3cc, 5-Fluoro-2-(4-(2-(2-fluoro-4-(trifluoromethyl)phenyl)-2-hydroxyethyl)-1H-1,2,3-triazol-1-yl)phenol] | – | – | – | – | – | > 256 µg/mL | 128 µg/mL (≈ 332 µM) | > 256 µg/mL | > 256 µg/mL | > 256 µg/mL
8 | CC(O)(Cc1cn(-c2ccc(Cl)cc2O)nn1)c1ccc(F)cc1 (stereo not drawn) [Compound 3db, 5-Chloro-2-(4-(2-(4-fluorophenyl)-2-hydroxypropyl)-1H-1,2,3-triazol-1-yl)phenol] | – | – | – | – | – | 32 µg/mL (≈ 92 µM) | 16 µg/mL (≈ 46 µM) | 128 µg/mL (≈ 368 µM) | 64 µg/mL (≈ 184 µM) | 128 µg/mL (≈ 368 µM)
9 | CC(O)(Cc1cn(-c2ccc(F)cc2O)nn1)c1ccc(F)cc1 (stereo not drawn) [Compound 3dc, 5-Fluoro-2-(4-(2-(4-fluorophenyl)-2-hydroxypropyl)-1H-1,2,3-triazol-1-yl)phenol] | – | – | – | – | – | 128 µg/mL (≈ 386 µM) | 64 µg/mL (≈ 193 µM) | > 256 µg/mL | 256 µg/mL (≈ 773 µM) | 256 µg/mL (≈ 773 µM)
10 | CC(O)(Cc1cn(-c2ccccc2O)nn1)c1ccc(F)cc1 (stereo not drawn) [Compound 3dd, 2-(4-(2-(4-Fluorophenyl)-2-hydroxypropyl)-1H-1,2,3-triazol-1-yl)phenol] | – | – | – | – | – | 256 µg/mL (≈ 817 µM) | 64 µg/mL (≈ 204 µM) | > 256 µg/mL | 256 µg/mL (≈ 817 µM) | 256 µg/mL (≈ 817 µM)
11 | CC(O)(Cc1cn(-c2ccc(F)cc2O)nn1)c1ccc(Cl)cc1 (stereo not drawn) [Compound 3ec, 2-(4-(2-(4-Chlorophenyl)-2-hydroxypropyl)-1H-1,2,3-triazol-1-yl)-5-fluorophenol] | – | – | – | – | – | 64 µg/mL (≈ 184 µM) | 8 µg/mL (≈ 23 µM) | 128 µg/mL (≈ 368 µM) | 128 µg/mL (≈ 368 µM) | 128 µg/mL (≈ 368 µM)
12 | CC(O)(Cc1cn(-c2ccccc2O)nn1)c1ccc(Cl)cc1 (stereo not drawn) [Compound 3ed, 2-(4-(2-(4-Chlorophenyl)-2-hydroxypropyl)-1H-1,2,3-triazol-1-yl)phenol] | – | – | – | – | – | 64 µg/mL (≈ 194 µM) | 8 µg/mL (≈ 24.3 µM) | 256 µg/mL (≈ 776 µM) | 128 µg/mL (≈ 388 µM) | 128 µg/mL (≈ 388 µM)
